Laboratory results from ChEMBL document CHEMBL5727031, “Metabotropic glutamate receptor negative allosteric modulators (NAMS) and uses thereof” (2018).

Columns and labels:
[1] = (§1) In Vitro GIRK Thallium Flux Assay (60 minutes): Human Embryonic Kidney (HEK-293) cell lines co-expressing rat mGlu receptors 2, 3, 4, 6, 7 or 8 and G protein-coupled inwardly-rectifying potassium (GIRK) channels_ENREF_54 were grown in Growth Media containing 45% DMEM, 45% F-12, 10% FBS, 20 mM HEPES, 2 mM L-glutamine, antibiotic/antimycotic, non-essential amino acids, 700 μg/ml G418, and 0.6 μg/ml puromycin at 37° C. in the presence of 5% CO2. All cell culture reagents were purchased from Invitrogen Corp. (Carlsbad, Calif.) unless otherwise noted. Compound activity at the group II (mGlu2 and mGlu3) mGlus was assessed using thallium flux through GIRK channels. Briefly, cells were plated into 384-well, black-walled, clear-bottomed poly-D-lysine-coated plates at a density of 15,000 cells/20 μL/well in DMEM containing 10% dialyzed FBS, 20 mM HEPES, and 100 units/mL penicillin/streptomycin (assay media). Plated cells were incubated overnight at 37° C. in the presence of 5% CO2. The following day, the medium was exchanged from the cells to assay buffer [Hanks' balanced salt solution (Invitrogen) containing 20 mM HEPES, pH 7.3] using an ELX405 microplate washer (BioTek), leaving 20 μL/well, followed by the addition of 20 μL/well FluoZin2-AM (330 nM final concentration) indicator dye (Invitrogen; prepared as a stock in DMSO and mixed in a 1:1 ratio with Pluronic acid F-127) in assay buffer. Cells were incubated for 1 h at room temperature, and the dye exchanged to assay buffer using an ELX405, leaving 20 μL/well. Test compounds were diluted to 2 times their final desired concentration in assay buffer (0.3% DMSO final concentration). Agonists were diluted in thallium buffer [125 mM sodium bicarbonate (added fresh the morning of the experiment), 1 mM magnesium sulfate, 1.8 mM calcium sulfate, 5 mM glucose, 12 mM thallium sulfate, and 10 mM HEPES, pH 7.3] at 5 times the final concentration to be assayed. Cell plates and compound plates were loaded onto a kinetic imaging plate reader (FDSS 6000 or 7000; Hamamatsu Corporation, Bridgewater, N.J.). Appropriate baseline readings were taken (10 images at 1 Hz; excitation, 470±20 nm; emission, 540±30 nm) and test compounds were added in a 20 μL volume and incubated for either 2.5 min or 60 min as indicated before the addition of 10 μL of thallium buffer with or without agonist. After the addition of agonist, data were collected for approximately an additional 60 min. Data were analyzed using Excel (Microsoft Corp, Redmond, Wash.). The slope of the fluorescence increase beginning 5 s after thallium/agonist addition and ending 15 s after thallium/agonist addition was calculated, corrected to vehicle and maximal agonist control slope values, and plotted in using either XLfit (ID Business Solutions Ltd) or Prism software (GraphPad Software, San Diego, Calif.) to generate concentration-response curves. Potencies were calculated from fits using a four-point parameter logistic equation. For concentration-response curve experiments, compounds were serially diluted 1:3 into 10 point concentration response curves and were transferred to daughter plates using an Echo acoustic plate reformatter (Labcyte, Sunnyvale, Calif.). Test compounds were applied and followed by EC80 concentrations of glutamate.; details: HEK293, 1 h
[2] = as §1; details: HEK293, 1 h; remark: listed apart in the source
[3] = as §1, with “Assay (2.5” for “Assay (60”, “additional 2.5” for “additional 60”; details: HEK293, 2.5 min
[4] = as above; details: HEK293, 2.5 min; remark: listed apart in the source

| Structure (SMILES) | EC50 [1] [nM] | EC50 [2] [nM] | EC50 [3] [µM] | EC50 [4] [µM] |
| --- | --- | --- | --- | --- |
| Cc1nc(-c2cccc(-c3ccc(F)cc3)c2)cs1 | > 10000 | > 10000 | > 10 | > 10 |
| c1ccc(-c2cccc(-c3cc(-c4ccccc4)on3)c2)cc1 | > 30000 | > 10000 | > 10 | > 10 |
| O=[N+]([O-])c1cccc(-c2cccc(-c3csc(-c4ccccc4)n3)c2)c1 | > 10000 | > 30000 | > 10 | > 10 |
| C(=C\c1nc(-c2cccc(-c3ccccc3)c2)cs1)/c1ccccc1 | > 10000 | > 10000 | > 10 | 3.47 |
| Clc1ccc(-c2cccc(-c3csc(-c4ccccc4)n3)c2)cc1 | 800 | 1330 | 0.79 | 0.57 |
| Fc1ccccc1-c1cccc(-c2nsc(-c3ccccc3)n2)c1 | 110 | > 10000 | > 10 | 0.89 |
| COc1ccccc1-c1cccc(-c2csc(-c3ccccc3)n2)c1 | 1350 | > 10000 | > 10 | 1.81 |
| c1ccc(Cn2nc(-c3cccc(-c4ccccc4)c3)nc2-c2ccccc2)cc1 | 2710 | 1400 | 3.9 | > 10 |
| COc1ccc(-c2nc(-c3cccc(-c4ccccc4)c3)cs2)cc1OC | 1100 | > 10000 | 4.02 | 2.58 |
| c1ccc(-c2cccc(-c3nc(-c4cccs4)n(-c4ccccc4)n3)c2)cc1 | 3670 | 1680 | 4.29 | > 10 |
| Fc1cccc(-c2cccc(-c3nc(-c4ccccc4)n(-c4ccccc4)n3)c2)c1 | > 10000 | 1510 | 3.11 | > 10 |
| Cc1cc(NC(=O)OC(C)(C)C)c(NC(=O)CC(=O)c2cccc(OCc3ccccc3)c2)cc1C(F)(F)F | 2360 | 740 | 2.93 | > 10 |
| Fc1ccc(-c2ccc(-c3csc(-c4ccccc4)n3)s2)cc1 | > 10000 | > 10000 | > 10 | > 10 |
| Fc1ccc(-c2cccc(-c3csc(-c4ccco4)n3)c2)cc1 | > 10000 | > 30000 | > 10 | 2.4 |
| c1ccc(-c2cccc(-c3csc(-c4ccc5ccccc5c4)n3)c2)cc1 | 4980 | > 10000 | > 30 | > 10 |
| Fc1ccccc1-c1cccc(-c2nc(-c3ccccc3)n(-c3ccccc3)n2)c1 | > 10000 | 2290 | 4.45 | > 10 |
| Fc1ccc(-c2cccc(-c3csc(-c4ccoc4)n3)c2)cc1 | 2500 | > 10000 | > 10 | 2.26 |
| Fc1ccc(-c2csc(-c3ccccc3)n2)cc1 | > 30000 | > 30000 | > 30 | > 10 |
| Clc1cccc(-c2cccc(-c3csc(-c4ccccc4)n3)c2)c1 | > 10000 | > 10000 | > 10 | > 10 |
| Fc1ccc(-c2cccc(-c3csc(-c4ccccc4)c3)c2)cc1 | > 10000 | > 10000 | > 10 | > 10 |
| Clc1ccc(-c2nc(-c3cccc(-c4ccccc4)c3)cs2)cn1 | 270 | 830 | > 10 | 3.83 |
| Fc1ccccc1-c1cccc(-c2csc(-c3ccccc3)n2)c1 | 3400 | > 30000 | > 30 | 1.59 |
| Fc1ccc(-c2cccc(-c3nsc(-c4ccccc4)n3)c2)cc1 | 50 | 460 | 0.52 | 0.1 |
| c1ccc(-c2cccc(-c3noc(-c4ccccc4)n3)c2)cc1 | 790 | > 10000 | > 10 | 1.33 |
| O/N=C\c1cc(-c2cccc(-c3csc(-c4ccccc4)n3)c2)ccc1F | > 10000 | > 10000 | > 30 | > 30 |
| Fc1cccc(-n2nc(-c3cccc(-c4ccccc4)c3)nc2-c2ccccc2)c1 | > 10000 | 1160 | > 10 | 3.22 |
